Assay results: PubChem BioAssay AID1963972 (Molecular Pharmacology Branch, DTP, NCI, 2024)

System: 945468-187-T-J2-PDC spheroids viability
Assay: Anticancer human tumor 945468-187-T-J2-PDC patient-derived rectal carcinoma cell line growth inhibition [PI3K]
Details: spheroids with HUVEC and MSC; for IC50: curve of first compound; for viability, T/C: stronger effect = lower value
Text: Combinatorial screen of targeted agents with the PI3K inhibitors inavolisib, alpelisib, duvelisib, and copanlisib in multi-cell type tumor spheroids
A high-throughput screen of multi-cell type tumor spheroids was designed to identify active combinations of targeted small molecules and PI3K pathway inhibitors. Complex spheroids include a stromal component modeled by human endothelial cells (HUVEC) and fibroblasts modeled by human mesenchymal stem cells (MSCs). The concentration ranges selected for each drug and investigational agent were based upon clinically achievable concentrations if the clinical Cmax of the agent was known.
Compounds. The drugs and investigational agents: inavolisib (NSC800729), alpelisib (NSC765974), duvelisib (NSC772469), copanlisib (NSC816437), ipatasertib (NSC767898), afuresertib (NSC778305), talazoparib (NSC767125), sapanisertib (NSC764658), selumetinib (NSC741078), tovorafenib (DAY101, NSC766906), vemurafenib (NSC761431), ravoxertinib (NSC781343), sotorasib (NSC818433), MRTX1133 (NSC 836407), abemaciclib (NSC 768073), palbociclib (NSC758247), venetoclax (NSC 766270), SY5609 (NSC837396), enzalutamide (NSC755605), and darolutamide (NSC825331), were obtained from the National Cancer Institute (NCI) Developmental Therapeutics Program Chemical Repository. The FDA-approved anticancer drug set is available from the NCI Developmental Therapeutics Program. […] The stock solutions were prepared in dimethyl sulfoxide (DMSO, Sigma-Aldrich, St. Louis, MO, cat. D2650) at 800-fold the tested concentration and stored at -70 degrees C prior to their use. All drugs and investigational agents were tested over a range starting from a high concentration at or near the clinical Cmax and decreasing in half-log increments. If the clinical Cmax for an agent had not been determined, the highest concentration tested was 10 microM.
Cell Culture. All cells were maintained in an incubator at 37 degrees C and 5% CO2 with 95% humidity. The PDC lines were cultured according to standard operating procedures established by the NCI PDMR (https://pdmr.cancer.gov/sops/default.htm). All PDCs were thawed and cultured in Matrigel-coated flasks prepared with a working solution of 1X Ham's F-12 nutrient mix, without supplementation (Invitrogen, Waltham, MA, cat. 11765054), 100 U/mL penicillin-streptomycin (Invitrogen, cat. 15140122), and 2.5% Matrigel (Corning Inc., Corning, NY, cat. 354248) for the first three passages. The 354836-022-R-J1-PDC, 475296-252-R-J1-PDC, and 997726-040-R-J2-PDC lines were cultured in 6A media, which includes advanced DMEM/F-12 (Thermo Fisher Scientific, cat. 12634028), 10 mM HEPES (Thermo Fisher Scientific, cat. 15630080), 1X GlutaMAX supplement (Thermo Fisher Scientific, cat. 35050061), 0.1 mg/mL primocin (InvivoGen, San Diego, CA, cat. ant-pm-2), 10% defined fetal bovine serum, heat inactivated (HyClone Laboratories Inc., Logan, UT, cat. SH30070.03HI), 50% L-WRN conditioned media (ATCC, cat. CRL-3276), 1.25 mM N-Acetyl-L-cysteine (Sigma-Aldrich, cat. A9165), 10 mM nicotinamide (Sigma-Aldrich, cat. N0636), 1X B-27 supplement (Thermo Fisher Scientific, cat. 17504044), 1X N-2 supplement (Thermo Fisher Scientific, cat. 17502048), and 10 microM Y-27632 dihydrochloride (Tocris Bioscience, Bristol, United Kingdom, cat. 1254). The 624824-186-R-J2-PDC line was cultured in 6C/Colon 1B media, which includes all 6A media components plus 50 ng/mL human EGF recombinant protein (Thermo Fisher Scientific, cat. PHG0311). […]
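Note: spheroids exposed to compounds for seven days before reading.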

`CC(C)n1nc(-c2ccc3oc(N)nc3c2)c2c(N)ncnc21` + CC(Nc1ccc2c(c1)OCCn1cc(N3C(=O)OCC3C(F)F)nc1-2)C(N)=O was tested, and the IC50 (second compound 0.00316 µM) was greater than 100 nM, the IC50 (second compound 0.01 µM) was greater than 100 nM and the IC50 (second compound 0.0316 µM) was greater than 100 nM. The IC50 (second compound 0.1 µM) was greater than 100 nM, the IC50 (second compound 0.316 µM) was 75.4 nM and the IC50 (second compound 1 µM) was 26.7 nM. The viability, T/C (second compound 0.00316 µM, first compound 0.000316 µM) was 141%, the viability, T/C (second compound 0.00316 µM, first compound 0.001 µM) was 114% and the viability, T/C (second compound 0.00316 µM, first compound 0.00316 µM) was 115%. It also gave a viability, T/C (second compound 0.00316 µM, first compound 0.01 µM) of 89.4%, a viability, T/C (second compound 0.00316 µM, first compound 0.0316 µM) of 107% and a viability, T/C (second compound 0.00316 µM, first compound 0.1 µM) of 83.7%. For the same compound, the viability, T/C (second compound 0.01 µM, first compound 0.000316 µM) was 168%, the viability, T/C (second compound 0.01 µM, first compound 0.001 µM) was 101% and the viability, T/C (second compound 0.01 µM, first compound 0.00316 µM) was 108%. For the same compound, the viability, T/C (second compound 0.01 µM, first compound 0.01 µM) was 91%, the viability, T/C (second compound 0.01 µM, first compound 0.0316 µM) was 88.8% and the viability, T/C (second compound 0.01 µM, first compound 0.1 µM) was 71%. The viability, T/C (second compound 0.0316 µM, first compound 0.000316 µM) was 105%, the viability, T/C (second compound 0.0316 µM, first compound 0.001 µM) was 85.2% and the viability, T/C (second compound 0.0316 µM, first compound 0.00316 µM) was 109%. For the same compound, the viability, T/C (second compound 0.0316 µM, first compound 0.01 µM) was 106%, the viability, T/C (second compound 0.0316 µM, first compound 0.0316 µM) was 95.7% and the viability, T/C (second compound 0.0316 µM, first compound 0.1 µM) was 73.4%. It also gave a viability, T/C (second compound 0.1 µM, first compound 0.000316 µM) of 81%, a viability, T/C (second compound 0.1 µM, first compound 0.001 µM) of 112% and a viability, T/C (second compound 0.1 µM, first compound 0.00316 µM) of 108%. It also gave a viability, T/C (second compound 0.1 µM, first compound 0.01 µM) of 91.8%, a viability, T/C (second compound 0.1 µM, first compound 0.0316 µM) of 101% and a viability, T/C (second compound 0.1 µM, first compound 0.1 µM) of 61.4%. The viability, T/C (second compound 0.316 µM, first compound 0.000316 µM) was 84.6%, the viability, T/C (second compound 0.316 µM, first compound 0.001 µM) was 89.7% and the viability, T/C (second compound 0.316 µM, first compound 0.00316 µM) was 82.2%. For the same compound, the viability, T/C (second compound 0.316 µM, first compound 0.01 µM) was 81.5%, the viability, T/C (second compound 0.316 µM, first compound 0.0316 µM) was 75.5% and the viability, T/C (second compound 0.316 µM, first compound 0.1 µM) was 41.8%. The viability, T/C (second compound 1 µM, first compound 0.000316 µM) was 87.4%, the viability, T/C (second compound 1 µM, first compound 0.001 µM) was 103% and the viability, T/C (second compound 1 µM, first compound 0.00316 µM) was 75.5%. The viability, T/C (second compound 1 µM, first compound 0.01 µM) was 61.1%, the viability, T/C (second compound 1 µM, first compound 0.0316 µM) was 52.6% and the viability, T/C (second compound 1 µM, first compound 0.1 µM) was 29.4%.
